Measurements published in publication PMC5421785, “Citrullination only infrequently impacts peptide binding to HLA class II MHC” (PLoS ONE, 2017).
Read-outs that look alike come from different tables or passages of the source. Square brackets hold non-standard residues; d marks the D form. Peptide text beside a SMILES is read from it. Cit = NC(=O)NCCC[C@H](N)C(=O)O

How the values were obtained:
HLA-DRB1*01:01 = molecular target: T1, HLA-DRB1*01:01 (Homo sapiens, UniProt P01903+P01911, A100R/D57E/F55L/F60I/F76Y/I96L/L162R/M171V/P40L/Q125E/R42F/V115G/Y59C); assay: HLA class II peptide binding, inhibition of radiolabeled peptide binding to purified MHC; settings: for IC50: read-out: DRB1*01:01 binding capacity, Cit peptide (IC50 nM); for DRB1*01:01 binding capacity, WT/cit ratio: ratio of WT IC50 to Cit IC50
T1 construct: EBV transformed homozygous cell lines were used as sources of MHC molecules; endogenous in cells; host or cells: EBV transformed homozygous cell lines

HLA-DRB1*04:01 = molecular target: T2, HLA-DRB1*04:01 (Homo sapiens, UniProt P01903+P01911, A100K/A169T/F76Y/I96L/K127E/L162R/M171V/N62H/P40V/Q125Y/R42H/S133A/S149N/S66Y/V115G/V209L/W38E); assay: as above; settings: for IC50: read-out: DRB1*04:01 binding capacity, Cit peptide (IC50 nM); for DRB1*04:01 binding capacity, WT/cit ratio: ratio of WT IC50 to Cit IC50
T2 construct: EBV transformed homozygous cell lines were used as sources of MHC molecules; endogenous in cells; host or cells: EBV transformed homozygous cell lines

[1] = citrullinated 15-mer peptide (X = citrulline), purified HLA-DRB1*01:01
[2] = citrullinated 15-mer peptide (X = citrulline), purified HLA-DRB1*04:01
[3] = >1 = citrullination increases binding
[4] = citrullinated 15-mer (X), purified MHC, inhibition of radiolabeled peptide binding, dash = IC50 >40,000 nM

Row | Structure (SMILES) | IC50 (HLA-DRB1*01:01; [1]) [nM] | IC50 (HLA-DRB1*04:01; [2]) [nM] | IC50 (HLA-DRB1*01:01; [4]) [nM] | IC50 (HLA-DRB1*04:01; [4]) [nM] | further results
1 | CC(C)[C@H](NC(=O)[C@H](CCC(N)=O)NC(=O)[C@H](CCCNC(=N)N)NC(=O)[C@H](CCCNC(N)=O)NC(=O)[C@H](Cc1ccc(O)cc1)NC(=O)[C@H](CCC(=O)O)NC(=O)[C@@H](NC(=O)[C@H](CO)NC(=O)[C@H](CCC(=O)O)NC(=O)[C@H](CCC(N)=O)NC(=O)[C@H](CCCCN)NC(=O)[C@H](C)NC(=O)[C@@H](N)CCC(N)=O)[C@@H](C)O)C(=O)N[C@@H](CCC(N)=O)C(=O)N[C@@H](CO)C(=O)O [QAKQESTEYXRQVQS] (H-QAKQESTEY[Cit]RQVQS-OH) | 9030 | > 40000 |  |  | 
2 | CC[C@H](C)[C@H](NC(=O)[C@H](CCC(=O)O)NC(=O)[C@H](CC(=O)O)NC(=O)[C@@H](N)CCC(N)=O)C(=O)N[C@@H](CCC(N)=O)C(=O)N[C@@H](CC(N)=O)C(=O)N[C@@H](CCSC)C(=O)N[C@@H](CCCCN)C(=O)N[C@@H](CCC(=O)O)C(=O)N[C@@H](CCC(=O)O)C(=O)N[C@@H](CCSC)C(=O)N[C@@H](C)C(=O)N[C@@H](CCCNC(N)=O)C(=O)N[C@@H](Cc1c[nH]cn1)C(=O)N[C@@H](CC(C)C)C(=O)O [QDEIQNMKEEMAXHL] | 5890 | 3940 |  |  | 
3 | CC(C)[C@H](NC(=O)[C@H](CC(=O)O)NC(=O)[C@H](CCCCN)NC(=O)[C@H](CC(=O)O)NC(=O)[C@H](CC(N)=O)NC(=O)[C@H](Cc1ccc(O)cc1)NC(=O)[C@H](CCCNC(N)=O)NC(=O)[C@H](CCC(N)=O)NC(=O)CNC(=O)[C@H](CC(=O)O)NC(=O)[C@@H](N)CCC(N)=O)C(=O)N[C@@H](Cc1c[nH]c2ccccc12)C(=O)N[C@@H](CCCCN)C(=O)N1CCC[C@H]1C(=O)N[C@@H](CCC(=O)O)C(=O)O [QDGQXYNDKDVWKPE] (H-QDGQ[Cit]YNDKDVWKPE-OH; N-terminus and C-terminus assumed) | > 40000 | > 40000 |  |  | DRB1*01:01 binding capacity, WT/cit ratio (HLA-DRB1*01:01; [3]): 1.0; DRB1*04:01 binding capacity, WT/cit ratio (HLA-DRB1*04:01; [3]): 1.0
4 | CSCC[C@H](NC(=O)[C@H](CCC(=O)O)NC(=O)[C@H](CCC(=O)O)NC(=O)[C@H](CCC(=O)O)NC(=O)[C@H](Cc1ccc(O)cc1)NC(=O)[C@H](CC(C)C)NC(=O)[C@H](CC(=O)O)NC(=O)CNC(=O)[C@H](CC(C)C)NC(=O)[C@H](CCCNC(=N)N)NC(=O)[C@H](CO)NC(=O)[C@H](CCCCN)NC(=O)CNC(=O)[C@@H](N)CCC(N)=O)C(=O)N[C@@H](CCCNC(N)=O)C(=O)O [QGKSRLGDLYEEEMX] (H-QGKSRLGDLYEEEM[Cit]-OH; N-terminus and C-terminus assumed) |  |  | > 40000 | > 40000 | DRB1*01:01 binding capacity, WT/cit ratio (HLA-DRB1*01:01): 0.7; DRB1*04:01 binding capacity, WT/cit ratio (HLA-DRB1*04:01): 1.0
5 | CSCC[C@H](NC(=O)[C@H](CCC(=O)O)NC(=O)[C@H](CCC(=O)O)NC(=O)[C@H](CCC(=O)O)NC(=O)[C@H](Cc1ccc(O)cc1)NC(=O)[C@H](CC(C)C)NC(=O)[C@H](CC(=O)O)NC(=O)CNC(=O)[C@H](CC(C)C)NC(=O)[C@H](CCCNC(N)=O)NC(=O)[C@H](CO)NC(=O)[C@H](CCCCN)NC(=O)CNC(=O)[C@@H](N)CCC(N)=O)C(=O)N[C@@H](CCCNC(=N)N)C(=O)O [QGKSXLGDLYEEEMR] (H-QGKS[Cit]LGDLYEEEMR-OH; N-terminus and C-terminus assumed) |  |  | > 40000 | > 40000 | DRB1*01:01 binding capacity, WT/cit ratio (HLA-DRB1*01:01): 0.7; DRB1*04:01 binding capacity, WT/cit ratio (HLA-DRB1*04:01): 1.0
6 | CC(C)C[C@H](NC(=O)CNC(=O)[C@H](CCCNC(N)=O)NC(=O)[C@@H]1CCCN1C(=O)CNC(=O)[C@@H](N)CCC(N)=O)C(=O)N1CCC[C@H]1C(=O)NCC(=O)N[C@H](C(=O)N1CCC[C@H]1C(=O)NCC(=O)N[C@H](C(=O)N[C@@H](CC(=O)O)C(=O)NCC(=O)N1CCC[C@H]1C(=O)O)[C@@H](C)O)[C@@H](C)O [QGPXGLPGTPGTDGP] (H-QGP[Cit]GLPGTPGTDGP-OH) | 21000 | > 40000 |  |  | 
7 | CC(C)C[C@H](NC(=O)[C@@H](NC(=O)[C@H](CC(N)=O)NC(=O)[C@H](CCC(=O)O)NC(=O)[C@H](C)NC(=O)[C@H](CCC(=O)O)NC(=O)[C@H](CCC(=O)O)NC(=O)[C@@H](N)CCCNC(=N)N)[C@@H](C)O)C(=O)N[C@@H](CCC(N)=O)C(=O)N[C@@H](CO)C(=O)N[C@@H](Cc1ccccc1)C(=O)N[C@@H](CCCNC(N)=O)C(=O)N[C@@H](CCC(N)=O)C(=O)N[C@@H](CC(=O)O)C(=O)N[C@H](C(=O)O)C(C)C [REEAENTLQSFXQDV] (H-REEAENTLQSF[Cit]QDV-OH) |  |  | 33300 | 11600 | 
8 | C[C@H](NC(=O)CNC(=O)[C@@H]1CCCN1C(=O)[C@H](CO)NC(=O)CNC(=O)[C@H](CCC(=O)O)NC(=O)[C@@H](N)CCCNC(=N)N)C(=O)N[C@@H](CC(=O)O)C(=O)NCC(=O)N1CCC[C@H]1C(=O)N1CCC[C@H]1C(=O)NCC(=O)N[C@@H](CCCNC(N)=O)C(=O)N[C@@H](CC(=O)O)C(=O)NCC(=O)O [REGSPGADGPPGXDG] (H-REGSPGADGPPG[Cit]DG-OH; N-terminus and C-terminus assumed) | > 40000 | > 40000 |  |  | DRB1*01:01 binding capacity, WT/cit ratio (HLA-DRB1*01:01; [3]): 1.0; DRB1*04:01 binding capacity, WT/cit ratio (HLA-DRB1*04:01; [3]): 1.0
9 | CSCC[C@H](NC(=O)[C@H](CCC(=O)O)NC(=O)[C@H](CCC(=O)O)NC(=O)[C@H](CCC(N)=O)NC(=O)[C@H](CC(C)C)NC(=O)[C@H](CCCCN)NC(=O)[C@H](CCC(=O)O)NC(=O)[C@@H](N)CCCNC(=N)N)C(=O)N[C@@H](CC(C)C)C(=O)N[C@@H](CCC(N)=O)C(=O)N[C@@H](CCCNC(N)=O)C(=O)N[C@@H](CCC(=O)O)C(=O)N[C@@H](CCC(=O)O)C(=O)N[C@@H](C)C(=O)N[C@@H](CCC(=O)O)C(=O)O [REKLQEEMLQXEEAE] (H-REKLQEEMLQ[Cit]EEAE-OH) |  |  | 13200 | > 40000 | 
10 | CC[C@H](C)[C@H](NC(=O)[C@H](CCCNC(N)=O)NC(=O)[C@H](CO)NC(=O)[C@H](CCC(=O)O)NC(=O)[C@H](CCC(=O)O)NC(=O)CNC(=O)[C@H](CCC(=O)O)NC(=O)[C@H](CC(C)C)NC(=O)[C@H](CC(C)C)NC(=O)[C@H](CCCCN)NC(=O)[C@@H](N)CCCNC(=N)N)C(=O)N[C@@H](CO)C(=O)N[C@@H](CC(C)C)C(=O)N1CCC[C@H]1C(=O)N[C@@H](CC(C)C)C(=O)O [RKLLEGEESXISLPL] | 1320 | 1200 |  |  | 
11 | CC(C)C[C@H](NC(=O)[C@H](CC(C)C)NC(=O)[C@H](CCCNC(N)=O)NC(=O)[C@@H](NC(=O)CNC(=O)[C@@H]1CCCN1C(=O)[C@@H](NC(=O)[C@H](CO)NC(=O)[C@H](CO)NC(=O)[C@@H](N)CCCNC(=N)N)C(C)C)C(C)C)C(=O)N[C@@H](CCC(N)=O)C(=O)N[C@@H](CC(=O)O)C(=O)N[C@@H](CO)C(=O)N[C@H](C(=O)N[C@@H](CC(=O)O)C(=O)O)C(C)C [RSSVPGVXLLQDSVD] (H-RSSVPGV[Cit]LLQDSVD-OH) |  |  | 1310 | 8950 | 
12 | CC(C)C[C@H](NC(=O)[C@H](C)NC(=O)[C@H](CO)NC(=O)CNC(=O)[C@H](CC(C)C)NC(=O)[C@H](CO)NC(=O)[C@H](Cc1ccc(O)cc1)NC(=O)[C@@H](NC(=O)[C@@H](N)CCCNC(=N)N)[C@@H](C)O)C(=O)N[C@@H](CCCNC(=N)N)C(=O)N1CCC[C@H]1C(=O)N[C@@H](CO)C(=O)N[C@H](C(=O)N[C@@H](CO)C(=O)N[C@@H](CCCNC(N)=O)C(=O)O)[C@@H](C)O [RTYSLGSALRPSTSX] (H-RTYSLGSALRPSTS[Cit]-OH) |  |  | 21 | 1090 | 
13 | CC(C)C[C@H](NC(=O)[C@H](C)NC(=O)[C@H](CO)NC(=O)CNC(=O)[C@H](CC(C)C)NC(=O)[C@H](CO)NC(=O)[C@H](Cc1ccc(O)cc1)NC(=O)[C@@H](NC(=O)[C@@H](N)CCCNC(=N)N)[C@@H](C)O)C(=O)N[C@@H](CCCNC(N)=O)C(=O)N1CCC[C@H]1C(=O)N[C@@H](CO)C(=O)N[C@H](C(=O)N[C@@H](CO)C(=O)N[C@@H](CCCNC(=N)N)C(=O)O)[C@@H](C)O [RTYSLGSALXPSTSR] (H-RTYSLGSAL[Cit]PSTSR-OH) |  |  | 14 | 1100 | 
14 | CC(C)C[C@H](NC(=O)CNC(=O)[C@H](C)NC(=O)[C@H](Cc1ccccc1)NC(=O)[C@H](C)NC(=O)[C@@H](N)CO)C(=O)NCC(=O)N1CCC[C@H]1C(=O)N[C@@H](CCCNC(N)=O)C(=O)N[C@@H](CCC(=O)O)C(=O)N[C@@H](CCCCN)C(=O)NCC(=O)N1CCC[C@H]1C(=O)N[C@@H](CC(=O)O)C(=O)N1CCC[C@H]1C(=O)O [SAFAGLGPXEKGPDP] (H-SAFAGLGP[Cit]EKGPDP-OH) | 35 | 6400 |  |  | 
15 | CC(C)C[C@H](NC(=O)[C@H](CC(C)C)NC(=O)[C@H](CCCNC(N)=O)NC(=O)[C@@H](NC(=O)CNC(=O)[C@@H]1CCCN1C(=O)[C@@H](NC(=O)[C@H](CO)NC(=O)[C@H](CO)NC(=O)[C@H](CCCNC(=N)N)NC(=O)[C@H](CC(C)C)NC(=O)[C@H](CCCNC(=N)N)NC(=O)[C@@H](NC(=O)[C@H](C)NC(=O)[C@@H](N)CO)C(C)C)C(C)C)C(C)C)C(=O)O [SAVRLRSSVPGVXLL] (H-SAVRLRSSVPGV[Cit]LL-OH) |  |  | 9.7 | 641 | 
